From patent EP0908457B1, “3-(1,2-benzisothiazol- and isoxazol-5-Y1)-2,4(1H,3H)-pyrimidinedione or thione and 3-(1,2-benzisothiazol- and isoxazol-5-y1)-4(3H)-pyrimidinone or thione herbicidal agents” (BASF AKTIENGESELLSCHAFT, priority 1997, dated 1999)

Key:
[1] = system: Echinochloa oryzoides (Ard.) Fritsch.; test: Preemergence weed control under flooded paddy conditions, ECHORC (Watergrass (Calif.)); format: in vivo; conditions: flooded paddy, rated three to four weeks after treatment; as to herbicidal effect rating, ECHORC: meaning of each grade not given here
[2] = system: Cyperus iria; test: Preemergence weed control under flooded paddy conditions, CYPIR (Rice Flatsedge); format: in vivo; conditions: flooded paddy, rated three to four weeks after treatment; as to herbicidal effect rating, CYPIR: meaning of each grade not given here
[3] = system: Cyperus serotinus, Rottb.; test: Preemergence weed control under flooded paddy conditions, CYPSE (Flatsedge); format: in vivo; conditions: rated three to four weeks after treatment; as to herbicidal effect rating, CYPSE: meaning of each grade not given here
[4] = system: Sagittaria pygmaea, L.; test: Preemergence weed control under flooded paddy conditions, SAGPY (Arrowhead (Pygmaea)); format: in vivo; conditions: flooded paddy, rated three to four weeks after treatment; as to herbicidal effect rating, SAGPY: meaning of each grade not given here
[5] = system: Oryza sativa, (L.) Tebonnet; test: Rice tolerance to post-transplant applications under flooded paddy conditions (Example 187), ORYSAT (Rice, Tebonnet); conditions: rated three to four weeks after treatment; as to herbicidal effect rating ORYSAT: meaning of each grade not given here
[6] = system: Monochoria vaginalis, Presl.; test: Preemergence weed control under flooded paddy conditions, MOOVA (Monochoria); format: in vivo; conditions: flooded paddy, rated three to four weeks after treatment; as to herbicidal effect rating, MOOVA: meaning of each grade not given here
[7] = Rate 0.0320 kg/ha, preemergence
[8] = Rate 0.0620 kg/ha, preemergence
[9] = Rate 0.1250 kg/ha, preemergence
[10] = Rate 0.2500 kg/ha, preemergence
[11] = Rate 0.0320 kg/ha, preemergence weeds
[12] = Rate 0.0620 kg/ha, preemergence weeds
[13] = Rate 0.1250 kg/ha, preemergence weeds
[14] = Rate 0.2500 kg/ha, preemergence weeds

COCOCc1nsc2ccc(-n3c(=O)cc(C(F)(F)F)n(C)c3=O)cc12 [Example 478, 2,4(1H,3H)-Pyrimidinedione, 3-{3-[(methoxymethoxy)methyl]-1,2-benzisothiazol-5-yl}-1-methyl-6-(trifluoromethyl)-]
ECHORC herbicidal rating ([1]; 0.0320 kg/ha, preemergence): 4.0
ECHORC herbicidal rating ([1]; 0.0620 kg/ha, preemergence): 6.0
ECHORC herbicidal rating ([1]; 0.1250 kg/ha, preemergence): 7.0
ECHORC herbicidal rating ([1]; 0.2500 kg/ha, preemergence): 9.0
CYPIR herbicidal rating ([2]; 0.0320 kg/ha, preemergence): 4.0
CYPIR herbicidal rating ([2]; 0.0620 kg/ha, preemergence): 9.0
CYPIR herbicidal rating ([2]; 0.1250 kg/ha, preemergence): 9.0
CYPIR herbicidal rating ([2]; 0.2500 kg/ha, preemergence): 9.0
CYPSE herbicidal rating ([3]; 0.0320 kg/ha, preemergence): 6.0
CYPSE herbicidal rating ([3]; 0.0620 kg/ha, preemergence): 7.0
CYPSE herbicidal rating ([3]; 0.1250 kg/ha, preemergence): 9.0
CYPSE herbicidal rating ([3]; 0.2500 kg/ha, preemergence): 9.0
SAGPY herbicidal rating ([4]; 0.0320 kg/ha, preemergence): 6.0
SAGPY herbicidal rating ([4]; 0.0620 kg/ha, preemergence): 6.0
SAGPY herbicidal rating ([4]; 0.1250 kg/ha, preemergence): 9.0
SAGPY herbicidal rating ([4]; 0.2500 kg/ha, preemergence): 9.0
ORYSAT herbicidal rating (rice tolerance) ([5]; 0.0320 kg/ha): 7.0
ORYSAT herbicidal rating (rice tolerance) ([5]; 0.0620 kg/ha): 9.0
ORYSAT herbicidal rating (rice tolerance) ([5]; 0.1250 kg/ha): 9.0
ORYSAT herbicidal rating (rice tolerance) ([5]; 0.2500 kg/ha): 9.0
MOOVA herbicidal rating ([6]; 0.0320 kg/ha, preemergence): 7.0
MOOVA herbicidal rating ([6]; 0.0620 kg/ha, preemergence): 9.0
MOOVA herbicidal rating ([6]; 0.1250 kg/ha, preemergence): 9.0
MOOVA herbicidal rating ([6]; 0.2500 kg/ha, preemergence): 9.0

Cc1ccc(OCC(=O)NS(=O)(=O)c2sc(C)nc2C)c(-c2nsc3ccc(-n4c(=O)cc(C(F)(F)F)n(C)c4=O)cc23)c1 [Example 288, Acetamide, 2-{{2-{5-[3,6-dihydro-3-methyl-2,6-dioxo-4-(trifluoromethyl)-1(2H)-pyrimidinyl]-1,2-benzisothiazol-3-yl}-p-tolyl}oxy}-N-[(2,4-dimethylthiazol-5-yl)sulfonyl]-]
ECHORC herbicidal effect rating [1, 7]: 0.0
ECHORC herbicidal effect rating [1, 8]: 0.0
ECHORC herbicidal effect rating [1, 9]: 4.0
ECHORC herbicidal effect rating [1, 10]: 5.0
CYPIR herbicidal effect rating [2, 7]: 0.0
CYPIR herbicidal effect rating [2, 8]: 0.0
CYPIR herbicidal effect rating [2, 9]: 4.0
CYPIR herbicidal effect rating [2, 10]: 6.0
CYPSE herbicidal effect rating [3, 7]: 0.0
CYPSE herbicidal effect rating [3, 8]: 0.0
CYPSE herbicidal effect rating [3, 9]: 0.0
CYPSE herbicidal effect rating [3, 10]: 0.0
SAGPY herbicidal effect rating [4, 7]: 0.0
SAGPY herbicidal effect rating [4, 8]: 0.0
SAGPY herbicidal effect rating [4, 9]: 0.0
SAGPY herbicidal effect rating [4, 10]: 0.0
ORYSAT herbicidal effect rating ([5]; Rate 0.0320 kg/ha): 0.0
ORYSAT herbicidal effect rating ([5]; Rate 0.0620 kg/ha): 0.0
ORYSAT herbicidal effect rating ([5]; Rate 0.1250 kg/ha): 1.0
ORYSAT herbicidal effect rating ([5]; Rate 0.2500 kg/ha): 2.0
MOOVA herbicidal effect rating [6, 7]: 0.0
MOOVA herbicidal effect rating [6, 8]: 0.0
MOOVA herbicidal effect rating [6, 9]: 3.0
MOOVA herbicidal effect rating [6, 10]: 6.0

COc1ccc(C)cc1-c1noc2cc(F)c(-n3c(=O)cc(C(F)(F)F)n(C)c3=O)cc12 [Example 345, 2,4(1H,3H)-Pyrimidinedione, 3-[6-fluoro-3-(6-methoxy-m-tolyl)-1,2-benzisoxazol-5-yl]-1-methyl-6-(trifluoromethyl)-]
herbicidal effect rating, ECHORC [1, 11]: 9.0
herbicidal effect rating, ECHORC [1, 12]: 9.0
herbicidal effect rating, ECHORC [1, 13]: 9.0
herbicidal effect rating, ECHORC [1, 14]: 9.0
herbicidal effect rating, CYPIR [2, 11]: 9.0
herbicidal effect rating, CYPIR [2, 12]: 9.0
herbicidal effect rating, CYPIR [2, 13]: 9.0
herbicidal effect rating, CYPIR [2, 14]: 9.0
herbicidal effect rating, CYPSE [3, 11]: 5.0
herbicidal effect rating, CYPSE [3, 12]: 9.0
herbicidal effect rating, CYPSE [3, 13]: 4.5
herbicidal effect rating, CYPSE [3, 14]: 9.0
herbicidal effect rating, SAGPY [4, 11]: 4.5
herbicidal effect rating, SAGPY [4, 12]: 9.0
herbicidal effect rating, SAGPY [4, 13]: 9.0
herbicidal effect rating, SAGPY [4, 14]: 9.0
herbicidal effect rating ORYSAT ([5]; Rate 0.0320 kg/ha): 5.5
herbicidal effect rating ORYSAT ([5]; Rate 0.0620 kg/ha): 5.5
herbicidal effect rating ORYSAT ([5]; Rate 0.1250 kg/ha): 5.5
herbicidal effect rating ORYSAT ([5]; Rate 0.2500 kg/ha): 6.0
herbicidal effect rating, MOOVA [6, 11]: 9.0
herbicidal effect rating, MOOVA [6, 12]: 9.0
herbicidal effect rating, MOOVA [6, 13]: 9.0
herbicidal effect rating, MOOVA [6, 14]: 9.0

COC(=O)COc1cc(Cl)c(C)cc1-c1nsc2ccc(-n3c(=O)cc(C(F)(F)F)n(C)c3=O)cc12 [Example 493, Acetic acid, {{5-chloro-2-{5-[3,6-dihydro-3-methyl-2,6-dioxo-4-(trifluoromethyl)-1(2H)-pyrimidinyl]-1,2-benzisothiazol-3-yl}-p-tolyl}oxy}-, methyl ester]
ECHORC herbicidal rating ([1]; 0.0320 kg/ha, preemergence): 4.0
ECHORC herbicidal rating ([1]; 0.0620 kg/ha, preemergence): 5.0
ECHORC herbicidal rating ([1]; 0.1250 kg/ha, preemergence): 9.0
ECHORC herbicidal rating ([1]; 0.2500 kg/ha, preemergence): 9.0
CYPIR herbicidal rating ([2]; 0.0320 kg/ha, preemergence): 4.0
CYPIR herbicidal rating ([2]; 0.0620 kg/ha, preemergence): 6.0
CYPIR herbicidal rating ([2]; 0.1250 kg/ha, preemergence): 7.0
CYPIR herbicidal rating ([2]; 0.2500 kg/ha, preemergence): 9.0
CYPSE herbicidal rating ([3]; 0.1250 kg/ha, preemergence): 9.0
CYPSE herbicidal rating ([3]; 0.2500 kg/ha, preemergence): 9.0
SAGPY herbicidal rating ([4]; 0.0320 kg/ha, preemergence): 0.0
SAGPY herbicidal rating ([4]; 0.0620 kg/ha, preemergence): 0.0
SAGPY herbicidal rating ([4]; 0.1250 kg/ha, preemergence): 0.0
SAGPY herbicidal rating ([4]; 0.2500 kg/ha, preemergence): 3.0
ORYSAT herbicidal rating (rice tolerance) ([5]; 0.0320 kg/ha): 2.0
ORYSAT herbicidal rating (rice tolerance) ([5]; 0.0620 kg/ha): 2.0
ORYSAT herbicidal rating (rice tolerance) ([5]; 0.1250 kg/ha): 3.0
ORYSAT herbicidal rating (rice tolerance) ([5]; 0.2500 kg/ha): 3.0
MOOVA herbicidal rating ([6]; 0.0320 kg/ha, preemergence): 5.0
MOOVA herbicidal rating ([6]; 0.0620 kg/ha, preemergence): 7.0
MOOVA herbicidal rating ([6]; 0.1250 kg/ha, preemergence): 7.0
MOOVA herbicidal rating ([6]; 0.2500 kg/ha, preemergence): 9.0

CN(C(=O)c1nsc2ccc(-n3c(=O)cc(C(F)(F)F)n(C)c3=O)cc12)S(C)(=O)=O [Example 367, 1,2-Benzisothiazole-3-carboxamide, 5-[3,6-dihydro-3-methyl-2,6-dioxo-4-(trifluoromethyl)-1(2H)-pyrimidinyl]-N-methyl-N-(methylsulfonyl)-]
herbicidal effect rating, ECHORC [1, 7]: 0.0
herbicidal effect rating, ECHORC [1, 8]: 0.0
herbicidal effect rating, ECHORC [1, 9]: 3.0
herbicidal effect rating, ECHORC [1, 10]: 6.0
herbicidal effect rating, CYPIR [2, 7]: 0.0
herbicidal effect rating, CYPIR [2, 8]: 5.0
herbicidal effect rating, CYPIR [2, 9]: 7.0
herbicidal effect rating, CYPIR [2, 10]: 9.0
herbicidal effect rating, CYPSE [3, 7]: 0.0
herbicidal effect rating, CYPSE [3, 8]: 9.0
herbicidal effect rating, CYPSE [3, 9]: 9.0
herbicidal effect rating, CYPSE [3, 10]: 9.0
herbicidal effect rating, SAGPY [4, 7]: 0.0
herbicidal effect rating, SAGPY [4, 8]: 2.0
herbicidal effect rating, SAGPY [4, 9]: 5.0
herbicidal effect rating, SAGPY [4, 10]: 9.0
herbicidal effect rating ORYSAT ([5]; Rate 0.0320 kg/ha): 0.0
herbicidal effect rating ORYSAT ([5]; Rate 0.0620 kg/ha): 0.0
herbicidal effect rating ORYSAT ([5]; Rate 0.1250 kg/ha): 5.0
herbicidal effect rating ORYSAT ([5]; Rate 0.2500 kg/ha): 6.0
herbicidal effect rating, MOOVA [6, 7]: 9.0
herbicidal effect rating, MOOVA [6, 8]: 9.0
herbicidal effect rating, MOOVA [6, 9]: 9.0
herbicidal effect rating, MOOVA [6, 10]: 9.0
